Experimental data from patent US8796466B2, “Hepatitis C virus inhibitors” (Bristol-Myers Squibb Company, priority 2009, dated 2014).
Where two headings read alike, the source gives them in different places.

Test system: HCV 1b genotype
Experiment: HCV Replicon assay (HCV 1b genotype)
Type: cell-based, Hepatitis C virus
Conditions: HCV 1b genotype replicon
Outline: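 HCV-neo replicon cells, wild-type plus lines carrying NS5A-region mutations, were exposed to compound; luciferase-reporter replicon variants were also used.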

[1] = Hepatitis C virus, Effective 50% inhibitory concentration, read-out: 1b EC50
[2] = Hepatitis C virus, class symbol, read-out: Range (EC50 values against HCV 1b)

COC(=O)N[C@H](C(=O)N1C[C@@H](C)C[C@H]1c1ncc(-c2ccc(C#Cc3ccc(-c4cnc([C@@H]5C[C@H](C)CN5C(=O)[C@@H](NC(=O)OC)C5CCOCC5)[nH]4)cc3)cc2)[nH]1)C1CCOCC1 [Example M12.3, dimethyl (1,2-ethynediylbis(4,1-phenylene-1H-imidazole-4,2-diyl((2S,4S)-4-methyl-2,1-pyrrolidinediyl)((1S)-2-oxo-1-(tetrahydro-2H-pyran-4-yl)-2,1-ethanediyl)))biscarbamate]
EC50 [1]: 0.014 nM | EC50 [2]: 0.002 to 0.099 nM

COC(=O)N[C@H](C(=O)N1C[C@@H](C)C[C@H]1c1nc(-c2ccc(C#Cc3ccc(-c4[nH]c([C@@H]5C[C@H](C)CN5C(=O)[C@@H](NC(=O)OC)C(C)C)nc4Cl)cc3)cc2)c[nH]1)C(C)C [Example M12.4, methyl ((1S)-1-(((2S,4S)-2-(4-(4-((4-(4-chloro-2-((2S,4S)-1-((2S)-2-((methoxycarbonyl)amino)-3-methylbutanoyl)-4-methyl-2-pyrrolidinyl)-1H-imidazol-5-yl)phenyl)ethynyl)phenyl)-1H-imidazol-2-yl)-4-methyl-1-pyrrolidinyl)carbonyl)-2-methylpropyl)carbamate]
EC50 [2]: 0.002 to 0.099 nM

COC(=O)N[C@H](C(=O)N1C[C@@H](C)C[C@H]1c1nc(Cl)c(-c2ccc(C#Cc3ccc(-c4[nH]c([C@@H]5C[C@H](C)CN5C(=O)[C@@H](NC(=O)OC)C(C)C)nc4Cl)cc3)cc2)[nH]1)C(C)C [Example M12.5]
EC50 (class symbol, read-out: Range (EC50 values against HCV 1b)): 0.002 to 0.099 nM

COC(=O)N[C@H](C(=O)N1C[C@@H](C)C[C@H]1c1nc(-c2ccc(C#Cc3ccc(-c4[nH]c([C@@H]5C[C@H](C)CN5C(=O)[C@@H](NC(=O)OC)C5CCOCC5)nc4Cl)cc3)cc2)c[nH]1)C1CCOCC1 [Example M12.6, methyl ((1S)-2-((2S,4S)-2-(4-(4-((4-(4-chloro-2-((2S,4S)-1-((2S)-2-((methoxycarbonyl)amino)-2-(tetrahydro-2H-pyran-4-yl)acetyl)-4-methyl-2-pyrrolidinyl)-1H-imidazol-5-yl)phenyl)ethynyl)phenyl)-1H-imidazol-2-yl)-4-methyl-1-pyrrolidinyl)-2-oxo-1-(tetrahydro-2H-pyran-4-yl)ethyl)carbamate]
EC50 [2]: 0.002 to 0.099 nM

COC(=O)N[C@H](C(=O)N1C[C@@H](C)C[C@H]1c1nc(Cl)c(-c2ccc(C#Cc3ccc(-c4[nH]c([C@@H]5C[C@H](C)CN5C(=O)[C@@H](NC(=O)OC)C5CCOCC5)nc4Cl)cc3)cc2)[nH]1)C1CCOCC1 [Example M12.7, dimethyl (1,2-ethynediylbis(4,1-phenylene(4-chloro-1H-imidazole-5,2-diyl)((2S,4S)-4-methyl-2,1-pyrrolidinediyl)((1S)-2-oxo-1-(tetrahydro-2H-pyran-4-yl)-2,1-ethanediyl)))biscarbamate]
EC50 [1]: 0.061 nM | EC50 [2]: 0.002 to 0.099 nM

COC(=O)N[C@H](C(=O)N1C[C@@H](C)C[C@H]1c1ncc(-c2ccc(C#Cc3ccc(-c4cnc([C@@H]5C[C@H](C)CN5C(=O)[C@@H](NC(=O)OC)C5CCOCC5)[nH]4)cc3)cc2)[nH]1)C(C)C [Example M12.8, methyl ((1S)-2-((2S,4S)-2-(4-(4-((4-(2-((2S,4S)-1-((2S)-2-((methoxycarbonyl)amino)-3-methylbutanoyl)-4-methyl-2-pyrrolidinyl)-1H-imidazol-4-yl)phenyl)ethynyl)phenyl)-1H-imidazol-2-yl)-4-methyl-1-pyrrolidinyl)-2-oxo-1-(tetrahydro-2H-pyran-4-yl)ethyl)carbamate]
EC50 [2]: 0.002 to 0.099 nM

COC(=O)N[C@H](C(=O)N1[C@H]2C[C@@]2(C)C[C@H]1c1ncc(-c2ccc(C#Cc3ccc(-c4cnc([C@@H]5C[C@]6(C)C[C@@H]6N5C(=O)[C@@H](NC(=O)OC)C(C)C)[nH]4)cc3)cc2)[nH]1)C(C)C [Example M12.9, methyl ((1S)-1-(((1S,3S,5S)-3-(4-(4-((4-(2-((1S,3S,5S)-2-((2S)-2-((methoxycarbonyl)amino)-3-methylbutanoyl)-5-methyl-2-azabicyclo[3.1.0]hex-3-yl)-1H-imidazol-4-yl)phenyl)ethynyl)phenyl)-1H-imidazol-2-yl)-5-methyl-2-azabicyclo[3.1.0]hex-2-yl)carbonyl)-2-methylpropyl)carbamate]
EC50 [2]: 0.002 to 0.099 nM

COC(=O)N[C@H](C(=O)N1[C@@H]2C[C@@H]2C[C@H]1c1ncc(-c2ccc(/C=C/c3ccc(-c4cnc([C@@H]5C[C@H]6C[C@H]6N5C(=O)[C@@H](NC(=O)OC)C(C)C)[nH]4)cc3)cc2)[nH]1)C(C)C [Example M13, methyl ((1S)-1-(((1R,3S,5R)-3-(4-(4-((E)-2-(4-(2-((1R,3S,5R)-2-((2S)-2-((methoxycarbonyl)amino)-3-methylbutanoyl)-2-azabicyclo[3.1.0]hex-3-yl)-1H-imidazol-4-yl)phenyl)vinyl)phenyl)-1H-imidazol-2-yl)-2-azabicyclo[3.1.0]hex-2-yl)carbonyl)-2-methylpropyl)carbamate]
EC50 [2]: 0.002 to 0.099 nM

COC(=O)N[C@H](C(=O)N1[C@@H]2C[C@@H]2C[C@H]1c1nc(-c2ccc(/C=C/c3ccc(-c4c[nH]c([C@@H]5C[C@H]6C[C@H]6N5C(=O)[C@@H](NC(=O)OC)C5CCOCC5)n4)cc3)cc2)c[nH]1)C1CCOCC1 [Example M14, dimethyl ((E)-1,2-ethenediylbis(4,1-phenylene-1H-imidazole-4,2-diyl(1R,3S,5R)-2-azabicyclo[3.1.0]hexane-3,2-diyl((1S)-2-oxo-1-(tetrahydro-2H-pyran-4-yl)-2,1-ethanediyl)))biscarbamate]
EC50 [1]: 0.017 nM | EC50 [2]: 0.002 to 0.099 nM

COC(=O)N[C@H](C(=O)N1[C@@H]2C[C@@H]2C[C@H]1c1nc(-c2ccc(/C=C/c3ccc(-c4c[nH]c([C@@H]5C[C@H]6C[C@H]6N5C(=O)[C@@H](NC(=O)OC)C5CCOCC5)n4)cc3)cc2)c[nH]1)C(C)C [Example M15, methyl ((1S)-2-((1R,3S,5R)-3-(4-(4-((E)-2-(4-(2-((1R,3S,5R)-2-((2S)-2-((methoxycarbonyl)amino)-3-methylbutanoyl)-2-azabicyclo[3.1.0]hex-3-yl)-1H-imidazol-4-yl)phenyl)vinyl)phenyl)-1H-imidazol-2-yl)-2-azabicyclo[3.1.0]hex-2-yl)-2-oxo-1-(tetrahydro-2H-pyran-4-yl)ethyl)carbamate]
EC50 [2]: 0.002 to 0.099 nM

COC(=O)N[C@H](C(=O)N1CC(F)(F)C[C@H]1c1nc(-c2ccc(C#Cc3ccc(-c4c[nH]c([C@@H]5CC(F)(F)CN5C(=O)[C@@H](NC(=O)OC)C(C)C)n4)cc3)cc2)c[nH]1)C(C)C [Example N1, methyl ((1S)-1-(((2S)-2-(4-(4-((4-(2-((2S)-4,4-difluoro-1-((2S)-2-((methoxycarbonyl)amino)-3-methylbutanoyl)-2-pyrrolidinyl)-1H-imidazol-4-yl)phenyl)ethynyl)phenyl)-1H-imidazol-2-yl)-4,4-difluoro-1-pyrrolidinyl)carbonyl)-2-methylpropyl)carbamate]
EC50 [2]: 0.002 to 0.099 nM

COC(=O)N[C@H](C(=O)N1CC(F)(F)C[C@H]1c1ncc(-c2ccc(C#Cc3ccc(-c4cnc([C@@H]5CC(F)(F)CN5C(=O)[C@@H](NC(=O)OC)C5CCOCC5)[nH]4)cc3)cc2)[nH]1)C1CCOCC1 [Example N2, dimethyl (ethyne-1,2-diylbis(4,1-phenylene-1H-imidazole-5,2-diyl((2S)-4,4-difluoropyrrolidine-2,1-diyl)((1S)-2-oxo-1-(tetrahydro-2H-pyran-4-yl)ethane-2,1-diyl)))biscarbamate]
EC50 [2]: 0.002 to 0.099 nM

COC(=O)N[C@H](C(=O)N1CC(F)(F)C[C@H]1c1ncc(-c2ccc(C#Cc3ccc(-c4cnc([C@@H]5CC(F)(F)CN5C(=O)[C@H](NC(=O)OC)C5CCOCC5)[nH]4)cc3)cc2)[nH]1)C1CCOCC1 [Example N3, methyl ((1R)-2-((2S)-2-(5-(4-((4-(2-((2S)-4,4-difluoro-1-((2S)-2-((methoxycarbonyl)amino)-2-(tetrahydro-2H-pyran-4-yl)acetyl)pyrrolidin-2-yl)-1H-imidazol-5-yl)phenyl)ethynyl)phenyl)-1H-imidazol-2-yl)-4,4-difluoropyrrolidin-1-yl)-2-oxo-1-(tetrahydro-2H-pyran-4-yl)ethyl)carbamate]
EC50 [1]: 0.25 nM | EC50 [2]: 10 to 350 nM

COC(=O)N[C@@H](C(=O)N1CC(F)(F)C[C@H]1c1ncc(-c2ccc(C#Cc3ccc(-c4cnc([C@@H]5CC(F)(F)CN5C(=O)[C@H](NC(=O)OC)C5CCOCC5)[nH]4)cc3)cc2)[nH]1)C1CCOCC1 [Example N4, dimethyl (ethyne-1,2-diylbis(4,1-phenylene-1H-imidazole-5,2-diyl((2S)-4,4-difluoropyrrolidine-2,1-diyl)((1R)-2-oxo-1-(tetrahydro-2H-pyran-4-yl)ethane-2,1-diyl)))biscarbamate]
EC50 [1]: 0.18 nM | EC50 [2]: 10 to 350 nM

COC(=O)N[C@H](C(=O)N1CCCC[C@H]1c1ncc(-c2ccc(C#Cc3ccc(-c4cnc([C@@H]5CCCCN5C(=O)[C@@H](NC(=O)OC)C(C)C)[nH]4)cc3)cc2)[nH]1)C(C)C [Example N6, methyl ((1S)-1-(((2S)-2-(4-(4-((4-(2-((2S)-1-((2S)-2-((methoxycarbonyl)amino)-3-methylbutanoyl)-2-piperidinyl)-1H-imidazol-4-yl)phenyl)ethynyl)phenyl)-1H-imidazol-2-yl)-1-piperidinyl)carbonyl)-2-methylpropyl)carbamate]
EC50 [2]: 10 to 350 nM

COC(=O)N[C@H](C(=O)N1C[C@@H](O)C[C@H]1c1ncc(-c2ccc(C#Cc3ccc(-c4cnc([C@@H]5C[C@H](O)CN5C(=O)[C@@H](NC(=O)OC)C(C)C)[nH]4)cc3)cc2)[nH]1)C(C)C [Example N7, methyl ((1S)-1-(((2S,4S)-4-hydroxy-2-(4-(4-((4-(2-((2S,4S)-4-hydroxy-1-((2S)-2-((methoxycarbonyl)amino)-3-methylbutanoyl)-2-pyrrolidinyl)-1H-imidazol-4-yl)phenyl)ethynyl)phenyl)-1H-imidazol-2-yl)-1-pyrrolidinyl)carbonyl)-2-methylpropyl)carbamate]
EC50 [2]: 0.002 to 0.099 nM
